Results: PubChem BioAssay (NCI)
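Briefly, cells in 96-well plates were exposed to five compound concentrations for 48 h, and endpoints were estimated by linear interpolation. TGI: concentration producing complete growth inhibition.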

Experiments:
Experiment in all cases: inhibition of tumour cell growth, NCI panel, 48 h
786-0 renal = system: 786-0 renal
A498 renal = system: A498 renal
A549 NSCLC = system: A549 NSCLC
ACHN renal = system: ACHN renal
CCRF-CEM leukemia = system: CCRF-CEM leukemia
COLO 205 colon = system: COLO 205 colon
DMS 114 small cell lung = system: DMS 114 small cell lung
DMS 273 small cell lung = system: DMS 273 small cell lung
EKVX NSCLC = system: EKVX NSCLC
HCC-2998 colon = system: HCC-2998 colon
HCT-116 colon = system: HCT-116 colon
HCT-15 colon = system: HCT-15 colon
HL-60(TB) leukemia = system: HL-60(TB) leukemia
HOP-62 NSCLC = system: HOP-62 NSCLC
HOP-92 NSCLC = system: HOP-92 NSCLC
HT29 colon = system: HT29 colon
IGROV1 ovarian = system: IGROV1 ovarian
K-562 leukemia = system: K-562 leukemia
KM12 colon = system: KM12 colon
KM20L2 colon = system: KM20L2 colon
LOX IMVI melanoma = system: LOX IMVI melanoma
LXFL 529 NSCLC = system: LXFL 529 NSCLC
M14 melanoma = system: M14 melanoma
M19-MEL melanoma = system: M19-MEL melanoma
MALME-3M melanoma = system: MALME-3M melanoma
MOLT-4 leukemia = system: MOLT-4 leukemia
NCI-H226 lung = system: NCI-H226 lung
NCI-H23 lung = system: NCI-H23 lung
NCI-H460 lung = system: NCI-H460 lung
NCI-H522 lung = system: NCI-H522 lung
OVCAR-3 ovarian = system: OVCAR-3 ovarian
OVCAR-4 ovarian = system: OVCAR-4 ovarian
OVCAR-5 ovarian = system: OVCAR-5 ovarian
OVCAR-8 ovarian = system: OVCAR-8 ovarian
RPMI-8226 leukemia = system: RPMI-8226 leukemia
SF-268 CNS = system: SF-268 CNS
SF-295 CNS = system: SF-295 CNS
SF-539 CNS = system: SF-539 CNS
SK-MEL-2 melanoma = system: SK-MEL-2 melanoma
SK-MEL-28 melanoma = system: SK-MEL-28 melanoma
SK-MEL-5 melanoma = system: SK-MEL-5 melanoma
SK-OV-3 ovarian = system: SK-OV-3 ovarian
SN12C renal = system: SN12C renal
SNB-19 CNS = system: SNB-19 CNS
SNB-78 CNS = system: SNB-78 CNS
SR leukemia = system: SR leukemia
SW-620 colon = system: SW-620 colon
TK-10 renal = system: TK-10 renal
UACC-257 melanoma = system: UACC-257 melanoma
UACC-62 melanoma = system: UACC-62 melanoma
UO-31 renal = system: UO-31 renal
XF 498 CNS = system: XF 498 CNS
CAKI-1 renal = system: CAKI-1 renal
DLD-1 colon = system: DLD-1 colon
RXF 393 renal = system: RXF 393 renal
SNB-75 CNS = system: SNB-75 CNS
U251 CNS = system: U251 CNS

In the case of `CC(=O)NNc1nc(C)c(C(=O)NNC(=O)C(=O)Nc2c(C)cccc2C(C)C)s1`, the TGI (786-0 renal) is reported as greater than 100 µM, the TGI (A498 renal) is reported as greater than 100 µM and the TGI (A549 NSCLC) is reported as greater than 100 µM. For the same compound, the TGI (ACHN renal) was greater than 100 µM, the TGI (CCRF-CEM leukemia) was greater than 100 µM and the TGI (COLO 205 colon) was greater than 100 µM. For the same compound, the TGI (DMS 114 small cell lung) was greater than 100 µM, the TGI (DMS 273 small cell lung) was greater than 100 µM and the TGI (EKVX NSCLC) was greater than 100 µM. The TGI (HCC-2998 colon) was greater than 100 µM, the TGI (HCT-116 colon) was greater than 100 µM and the TGI (HCT-15 colon) was greater than 100 µM. For the same compound, the TGI (HL-60(TB) leukemia) was greater than 100 µM, the TGI (HOP-62 NSCLC) was greater than 100 µM and the TGI (HOP-92 NSCLC) was greater than 100 µM. For the same compound, the TGI (HT29 colon) was greater than 100 µM, the TGI (IGROV1 ovarian) was greater than 100 µM and the TGI (K-562 leukemia) was greater than 100 µM. For the same compound, the TGI (KM12 colon) was greater than 100 µM, the TGI (KM20L2 colon) was greater than 100 µM and the TGI (LOX IMVI melanoma) was greater than 100 µM. It also gave a TGI (LXFL 529 NSCLC) greater than 100 µM, a TGI (M14 melanoma) greater than 100 µM and a TGI (M19-MEL melanoma) greater than 100 µM. For the same compound, the TGI (MALME-3M melanoma) was greater than 100 µM, the TGI (MOLT-4 leukemia) was greater than 100 µM and the TGI (NCI-H226 lung) was greater than 100 µM. For the same compound, the TGI (NCI-H23 lung) was greater than 100 µM, the TGI (NCI-H460 lung) was greater than 100 µM and the TGI (NCI-H522 lung) was greater than 100 µM. For the same compound, the TGI (OVCAR-3 ovarian) was greater than 100 µM, the TGI (OVCAR-4 ovarian) was greater than 100 µM and the TGI (OVCAR-5 ovarian) was greater than 100 µM. For the same compound, the TGI (OVCAR-8 ovarian) was greater than 100 µM, the TGI (RPMI-8226 leukemia) was greater than 100 µM and the TGI (SF-268 CNS) was greater than 100 µM. It also gave a TGI (SF-295 CNS) greater than 100 µM, a TGI (SF-539 CNS) greater than 100 µM and a TGI (SK-MEL-2 melanoma) greater than 100 µM. It also gave a TGI (SK-MEL-28 melanoma) greater than 100 µM, a TGI (SK-MEL-5 melanoma) greater than 100 µM and a TGI (SK-OV-3 ovarian) greater than 100 µM. For the same compound, the TGI (SN12C renal) was greater than 100 µM, the TGI (SNB-19 CNS) was greater than 100 µM and the TGI (SNB-78 CNS) was greater than 100 µM. The TGI (SR leukemia) was greater than 100 µM, the TGI (SW-620 colon) was greater than 100 µM and the TGI (TK-10 renal) was greater than 100 µM. The TGI (UACC-257 melanoma) was greater than 100 µM, the TGI (UACC-62 melanoma) was greater than 100 µM and the TGI (UO-31 renal) was greater than 100 µM. The TGI (XF 498 CNS) was greater than 100 µM.

In the case of `O=C(Nc1ccc(F)cc1)C(=O)C(C(=O)c1ccccc1F)C1OC(=O)c2ccccc21` (stereo not given), the TGI (A498 renal) is reported as greater than 100 µM, the TGI (A549 NSCLC) is reported as greater than 100 µM and the TGI (ACHN renal) is reported as greater than 100 µM. It also gave a TGI (CAKI-1 renal) greater than 100 µM, a TGI (CCRF-CEM leukemia) of 90.8 µM and a TGI (COLO 205 colon) greater than 100 µM. The TGI (DLD-1 colon) was greater than 100 µM, the TGI (DMS 114 small cell lung) was greater than 100 µM and the TGI (DMS 273 small cell lung) was greater than 100 µM. The TGI (EKVX NSCLC) was greater than 100 µM, the TGI (HCC-2998 colon) was greater than 100 µM and the TGI (HCT-116 colon) was greater than 100 µM. For the same compound, the TGI (HCT-15 colon) was greater than 100 µM, the TGI (HL-60(TB) leukemia) was greater than 100 µM and the TGI (HOP-62 NSCLC) was greater than 100 µM. The TGI (HOP-92 NSCLC) was greater than 100 µM, the TGI (HT29 colon) was greater than 100 µM and the TGI (IGROV1 ovarian) was greater than 100 µM. For the same compound, the TGI (K-562 leukemia) was greater than 100 µM, the TGI (KM12 colon) was greater than 100 µM and the TGI (KM20L2 colon) was greater than 100 µM. For the same compound, the TGI (LOX IMVI melanoma) was greater than 100 µM, the TGI (LXFL 529 NSCLC) was greater than 100 µM and the TGI (M14 melanoma) was greater than 100 µM. The TGI (MOLT-4 leukemia) was greater than 100 µM, the TGI (NCI-H226 lung) was 63.5 µM and the TGI (NCI-H23 lung) was greater than 100 µM. The TGI (NCI-H460 lung) was greater than 100 µM, the TGI (NCI-H522 lung) was 71.8 µM and the TGI (OVCAR-4 ovarian) was greater than 100 µM. It also gave a TGI (OVCAR-5 ovarian) greater than 100 µM, a TGI (OVCAR-8 ovarian) greater than 100 µM and a TGI (RPMI-8226 leukemia) greater than 100 µM. The TGI (RXF 393 renal) was greater than 100 µM, the TGI (SF-268 CNS) was greater than 100 µM and the TGI (SF-295 CNS) was greater than 100 µM. It also gave a TGI (SF-539 CNS) of 89.9 µM, a TGI (SK-MEL-2 melanoma) greater than 100 µM and a TGI (SK-MEL-28 melanoma) greater than 100 µM. The TGI (SK-MEL-5 melanoma) was greater than 100 µM, the TGI (SK-OV-3 ovarian) was greater than 100 µM and the TGI (SN12C renal) was greater than 100 µM. The TGI (SNB-19 CNS) was greater than 100 µM, the TGI (SNB-75 CNS) was greater than 100 µM and the TGI (SNB-78 CNS) was greater than 100 µM. It also gave a TGI (SR leukemia) of 59.6 µM, a TGI (SW-620 colon) greater than 100 µM and a TGI (TK-10 renal) greater than 100 µM. For the same compound, the TGI (U251 CNS) was 66.1 µM, the TGI (UACC-257 melanoma) was greater than 100 µM and the TGI (UACC-62 melanoma) was greater than 100 µM. It also gave a TGI (UO-31 renal) greater than 100 µM and a TGI (XF 498 CNS) greater than 100 µM.
